Data set [1] deals with DU145 tumor cells (human prostate cancer cell line). In words: DU145 tumor xenograft in nude mice (Example 7). It counts as in vivo. As to conditions: for effect on tumor growth (mean tumor volume): IP every other day, Compound A 200 mg/kg, oxaliplatin 5 mg/kg, alone or combined. As for the experimental part: At this time, animals were divided into four groups (N=5) and were treated every other day by IP injections with: […] (b) oxaliplatin (5.0 mg/kg); […] All animals were examined for signs of toxicity. Tumor volumes and body weights were determined weekly. […] The tumor volume is plotted in FIG. 2 as the mean tumor volume±standard error of the mean (SEM) for all animals in each particular dose group.

Data set [2] concerns BEL-7402 tumor cells (human hepatoma cell line). It counts as in vivo. To be noted: BEL-7402 xenograft, IP every other day, Compound A 200 mg/kg, oxaliplatin 5 mg/kg, alone or combined. Here is the method:
Twenty female athymic nude mice (NCR-nu/nu, Taconic) were injected subcutaneously with 1×10^7 BEL-7402 tumor cells (human hepatoma cell line). The tumors produced by the tumor cell injections were allowed to grow for a period of 10-14 days until the tumors reached a size from 200 to 250 mm^3. The mice were then divided into four test groups (N=5) which were treated every other day by intraperitoneal (IP) injections of: (a) (E)-2-(5-((2,4,6-trimethoxystyrylsulfonyl)methyl)-2-methoxyphenylamino)acetic acid sodium salt (Compound A) (200 mg/kg) dissolved in PBS; (b) oxaliplatin (5 mg/kg); (c) a combination of (E)-2-(5-((2,4,6-trimethoxystyrylsulfonyl)methyl)-2-methoxyphenylamino)acetic acid sodium salt (200 mg/kg) dissolved in PBS and oxaliplatin (5 mg/kg), or (d) PBS vehicle containing no drug. […] Body weights are plotted in FIG. 1(b) as the mean of the measured weights of all the animals in each dose group. Tumor volume was determined by measuring each tumor in two dimensions using traceable digital Vernier calipers (Fisher Scientific International Inc., Liberty Lane, Hampton, N.H. 03842). The tumor volume was calculated for each tumor using the equation: V=L×(S^2)π/6, wherein L is the longer, and S is the shorter of the two measured dimensions. […]

Data set [3] relates to MCF-7 tumor cells (human breast cancer cell line). Here is the method: Estradiol pellets (1 mg) were implanted interscapularly into twenty female athymic nude mice (NCR-nu/nu, Taconic) mouse. After 24 hours 1×10^7 MCF-7 tumor cells (breast cancer cell line) were implanted in the mammary fat pad of each mouse. The tumors produced by the tumor cell injections were allowed to grow for a period of 10-15 days until the tumors reached a size from 200 to 250 mm^3. The mice were then divided into four test groups (N=5) which were treated every other day by IP injections with: (a) (E)-2-(5-((2,4,6-trimethoxystyrylsulfonyl)methyl)-2-methoxyphenylamino)acetic acid sodium salt (200 mg/kg) dissolved in PBS; (b) doxorubicin (2.5 mg/kg) dissolved in PBS; (c) a combination of (E)-2-(5-((2,4,6-trimethoxystyrylsulfonyl)methyl)-2-methoxyphenylamino)acetic acid sodium salt (200 mg/kg) and doxorubicin (2.5 mg/kg) dissolved in PBS; or (d) PBS vehicle containing no drug. […] Body weights are plotted in FIG. 3(b) as the mean of the measured weights of all the animals in each dose group. Tumor volume was determined by measuring each tumor in two dimensions using traceable digital Vernier calipers. The tumor volume was calculated for each tumor using the equation: V=L×(S^2)π/6. The tumor volume is plotted in FIG. 3(a) as the mean tumor volume all animals in each particular dose group.

The test system is the same in data set [4]. In words: Doxorubicin toxicity and lethality in MCF-7 tumor-bearing nude mice (Example 9). It counts as in vivo. As for the experimental part: Estradiol pellets (1 mg) were implanted interscapularly into ten female athymic nude mice (NCR-nu/nu, Taconic) mouse. […] Body weights for the individual animals of group (a) are plotted in FIG. 4(a) and body weights for the individual animals of group (b) are plotted in FIG. 4(b).

Setting [5] is: MCF-7 xenograft, IP every other day, Compound A 200 mg/kg, doxorubicin 2.5 mg/kg, alone or combined.

“Also recorded” adds a separate entry of the source. Where two headings read alike, the source gives them in different places.

For `COc1cc(OC)c(/C=C/S(=O)(=O)Cc2ccc(OC)c(NCC(=O)[O-])c2)c(OC)c1.[Na+]` [(E)-2-(5-((2,4,6-trimethoxystyrylsulfonyl)methyl)-2-methoxyphenylamino)acetic acid sodium salt], the “effect on tumor growth (mean tumor volume)” value (“effect on tumor growth” below) in data set [1] is “significant therapeutic response”; in data set [2] (sodium salt), “significant greater reduction in tumor growth; also recorded: slowed the growth of the tumor”; in data set [3] (MCF-7 xenograft, IP every other day, Compound A 200 mg/kg, doxorubicin 2.5 mg/kg, alone or combined, sodium salt), “significantly slowed the growth of the tumors; also recorded: comparable reduction in tumor growth”. Also, the “time at which tumors were of comparable volume to control tumors after 28 days” value in data set [1] (single agents) is given as 63 days. In addition, the “survival of the animals” value in data set [3] (setting [5]) was 84 days.

Consider `COc1cccc2c1C(=O)c1c(O)c3c(c(O)c1C2=O)C[C@@](O)(C(=O)CO)C[C@@H]3O[C@H]1C[C@H](N)[C@H](O)[C@H](C)O1` [doxorubicin], for which the “animals with major weight loss immediately preceding death” value in data set [4] (doxorubicin 1 mg/kg IP every other day alone) is given as 4 of the 5. The body weight change entry in data set [4] (doxorubicin 1 mg/kg IP every other day, alone or with Compound A 200 mg/kg) is “initial suggestive weight gain”. Besides, the survival rate in data set [4] (doxorubicin 1 mg/kg IP every other day, alone or with Compound A 200 mg/kg, N=5) worked out at 20%. The “effect on tumor growth” value in data set [3] (setting [5]) is “significantly slowed the growth of the tumors”. Also, in data set [3] (doxorubicin 2.5 mg/kg alone, by the 35th day), the “tumor size when the animals had died” value amounted to 500 mm^3.

Turning to `O=C1[O][Pt]2([NH][C@@H]3CCCC[C@H]3[NH]2)[O]C1=O` [oxaliplatin], the figures for the “effect on tumor growth” value in data set [1] and in data set [2] were “significant therapeutic response” and “significant greater reduction in tumor growth; also recorded: slowed the growth of the tumor”, respectively.

Values taken from patent publication US8106033B2, “Composition and methods for the treatment of proliferative diseases” (priority 2005, dated 2012).
